This data set has as its system CCRIS mutagenicity, Ames/micronucleus/aberration tests. Nature of the data set: CCRIS mutagenicity studies.
Setting [1] is: Test System: AMES SALMONELLA TYPHIMURIUM, Strain/Indicator: TA100, Metabolic Activation: NONE, Method: STANDARD PLATE.
[2] abbreviates: Test System: AMES SALMONELLA TYPHIMURIUM, Strain/Indicator: TA98, Metabolic Activation: NONE, Method: PREINCUBATION
The mark [3] stands for this setting: Test System: AMES SALMONELLA TYPHIMURIUM, Strain/Indicator: TA100, Metabolic Activation: NONE, Method: PREINCUBATION
Where [4] appears, read: Test System: AMES SALMONELLA TYPHIMURIUM, Strain/Indicator: TA98, Metabolic Activation: NONE, Method: STANDARD PLATE.
The mark [5] stands for this setting: Test System: AMES SALMONELLA TYPHIMURIUM, Strain/Indicator: TA98, Metabolic Activation: RAT, LIVER, S-9, AROCLOR 1254, Method: STANDARD PLATE.
The mark [6] stands for this setting: Test System: AMES SALMONELLA TYPHIMURIUM, Strain/Indicator: TA100, Metabolic Activation: RAT, LIVER, S-9, AROCLOR 1254, Method: STANDARD PLATE.

Calls of active or inactive are those of the source. The rule behind the calls is not given here.

Turning to `O=[N+]([O-])c1ccc2ccc3c4ccccc4nc4ccc1c2c43`, the mutagenic call was “active; positive” (Test System: AMES SALMONELLA TYPHIMURIUM, Strain/Indicator: TA98(1,8-DNP6), Metabolic Activation: NONE); “active; positive” (Test System: AMES SALMONELLA TYPHIMURIUM, Strain/Indicator: TA98(NR), Metabolic Activation: NONE); “active; positive” (Test System: AMES SALMONELLA TYPHIMURIUM, Strain/Indicator: TA98, Metabolic Activation: NONE).
For the compound `O=C/C(Br)=C(/Br)C(=O)O`, the mutagenic call was “inactive; negative” (End Point: In vitro micronucleus, Test System: Human lymphocytes, Metabolic Activation: None) and “active; positive” under setting [1].
In the case of `COC(C)(C)CC(C)=O`, the mutagenic call reads like this: (Test System: AMES SALMONELLA TYPHIMURIUM, Strain/Indicator: TA98, Metabolic Activation: HAMSTER, LIVER, S-9, AROCLOR 1254 (10%), Method: PREINCUBATION) “inactive; negative”; under setting [2], “inactive; negative”; (Test System: AMES SALMONELLA TYPHIMURIUM, Strain/Indicator: TA98, Metabolic Activation: RAT, LIVER, S-9, AROCLOR 1254 (10%), Method: PREINCUBATION) “inactive; negative”; (Test System: AMES SALMONELLA TYPHIMURIUM, Strain/Indicator: TA100, Metabolic Activation: HAMSTER, LIVER, S-9, AROCLOR 1254 (10%), Method: PREINCUBATION) “inactive; negative”; under setting [3], “inactive; negative”; (Test System: AMES SALMONELLA TYPHIMURIUM, Strain/Indicator: TA100, Metabolic Activation: RAT, LIVER, S-9, AROCLOR 1254 (10%), Method: PREINCUBATION) “inactive; negative”. Further, the mutagenic call (Test System: AMES SALMONELLA TYPHIMURIUM, Strain/Indicator: TA1535, Metabolic Activation: HAMSTER, LIVER, S-9, AROCLOR 1254 (10%), Method: PREINCUBATION) is “inactive; negative”; the mutagenic call (Test System: AMES SALMONELLA TYPHIMURIUM, Strain/Indicator: TA1535, Metabolic Activation: NONE, Method: PREINCUBATION) was “inactive; negative”; the mutagenic call (Test System: AMES SALMONELLA TYPHIMURIUM, Strain/Indicator: TA1535, Metabolic Activation: RAT, LIVER, S-9, AROCLOR 1254 (10%), Method: PREINCUBATION) was “inactive; negative”; the mutagenic call (Test System: AMES SALMONELLA TYPHIMURIUM, Strain/Indicator: TA1537, Metabolic Activation: HAMSTER, LIVER, S-9, AROCLOR 1254 (10%), Method: PREINCUBATION) was “inactive; negative”; the mutagenic call (Test System: AMES SALMONELLA TYPHIMURIUM, Strain/Indicator: TA1537, Metabolic Activation: NONE, Method: PREINCUBATION) is “inactive; negative”; the mutagenic call (Test System: AMES SALMONELLA TYPHIMURIUM, Strain/Indicator: TA1537, Metabolic Activation: RAT, LIVER, S-9, AROCLOR 1254 (10%), Method: PREINCUBATION) was “inactive; negative”.
Turning to `NC(=O)N(CCBr)N=O`, the mutagenic call by setting is: (Test System: E. COLI B, Strain/Indicator: H/R30R, Metabolic Activation: NONE) “active; positive”; (Test System: E. COLI B, Strain/Indicator: HS30R, Metabolic Activation: NONE) “active; positive”.
In the case of `O=C(/C=C/c1ccc(O)cc1)c1ccccc1`, the mutagenic call reads like this: under setting [4], “inactive; negative”; under setting [5], “inactive; negative”; under setting [1], “inactive; negative”; under setting [6], “inactive; negative”.
`CN(C)/C=N/c1nnc(/C=C/c2ccc([N+](=O)[O-])o2)o1`: the mutagenic call (Test System: AMES SALMONELLA TYPHIMURIUM, Strain/Indicator: TA100, Metabolic Activation: RAT, LIVER, S-9, KC500 OR PHENOBARBITAL, Method: LIQUID SUSPENSION) was “active; positive”.
Turning to `c1ccc(COc2cccc3cccnc23)cc1`, under “Test System: AMES SALMONELLA TYPHIMURIUM, Strain/Indicator: TA100, Metabolic Activation: S-9, Method: PREINCUBATION”, the mutagenic call is “inactive; negative”.
As to `C=CCNc1ccccc1.C=CCNc1ccccc1.C=CCNc1ccccc1.[Cl-].[Cl-].[Rh].[Rh]`, the mutagenic call (Test System: AMES SALMONELLA TYPHIMURIUM, Strain/Indicator: TA92, Metabolic Activation: NONE, Method: STANDARD PLATE) was “inactive; negative”.
`Cc1ccc(N=[N+]([O-])c2ccc(C)c([N+](=O)[O-])c2)cc1[N+](=O)[O-]`: the mutagenic call by setting is: (Test System: AMES SALMONELLA TYPHIMURIUM, Strain/Indicator: TA98, Metabolic Activation: NONE, Method: SUSPENSION/PLATE) “inactive; negative”; (Test System: AMES SALMONELLA TYPHIMURIUM, Strain/Indicator: TA98, Metabolic Activation: RAT, LIVER, S-9, PHENOBARBITAL AND 5,6-BENZOFLAVONE, Method: SUSPENSION/PLATE) “inactive; negative”; (Test System: AMES SALMONELLA TYPHIMURIUM, Strain/Indicator: TA100, Metabolic Activation: NONE, Method: SUSPENSION/PLATE) “inactive; negative”; (Test System: AMES SALMONELLA TYPHIMURIUM, Strain/Indicator: TA100, Metabolic Activation: RAT, LIVER, S-9, PHENOBARBITAL AND 5,6-BENZOFLAVONE, Method: SUSPENSION/PLATE) “inactive; negative”.
`C[C@H]1CCCC(=O)CCCCCc2cc(O)cc(O)c2C(=O)O1`: the mutagenic call is, setting by setting: under setting [4], “inactive; negative”; (Test System: AMES SALMONELLA TYPHIMURIUM, Strain/Indicator: TA98, Metabolic Activation: RAT, LIVER, S-9, Method: STANDARD PLATE) “inactive; negative”; under setting [1], “inactive; negative”; (Test System: AMES SALMONELLA TYPHIMURIUM, Strain/Indicator: TA100, Metabolic Activation: RAT, LIVER, S-9, Method: STANDARD PLATE) “inactive; negative”; (Test System: AMES SALMONELLA TYPHIMURIUM, Strain/Indicator: TA1535, Metabolic Activation: NONE, Method: STANDARD PLATE) “inactive; negative”; (Test System: AMES SALMONELLA TYPHIMURIUM, Strain/Indicator: TA1535, Metabolic Activation: RAT, LIVER, S-9, Method: STANDARD PLATE) “inactive; negative; toxicity at 1000 ug/plate”. The mutagenic call runs as follows: (Test System: AMES SALMONELLA TYPHIMURIUM, Strain/Indicator: TA1537, Metabolic Activation: NONE, Method: STANDARD PLATE) “inactive; negative”; (Test System: AMES SALMONELLA TYPHIMURIUM, Strain/Indicator: TA1537, Metabolic Activation: RAT, LIVER, S-9, Method: STANDARD PLATE) “inactive; negative”; (Test System: AMES SALMONELLA TYPHIMURIUM, Strain/Indicator: TA1538, Metabolic Activation: NONE, Method: STANDARD PLATE) “inactive; negative”; (Test System: AMES SALMONELLA TYPHIMURIUM, Strain/Indicator: TA1538, Metabolic Activation: RAT, LIVER, S-9, Method: STANDARD PLATE) “inactive; negative”.
As to `COCC12OOC1(C)c1ccccc1O2` (stereo not given), the mutagenic call under setting [3] was “active; positive”.
On to `Cc1ccc2nc3c(c(C)c2c1)[C@@H](O)[C@H](O)c1ccccc1-3`, for which the mutagenic call under setting [6] is “inactive; negative”.
On to `C[C@]12CCC(=O)C=C1C=C[C@@H]1[C@@H]2CC[C@@]2(C)[C@H]1CC[C@@]2(O)CCC(=O)O`, for which the mutagenic call was “inactive; negative” (End Point: IN VITRO MICRONUCLEUS, Test System: HUMAN PERIPHERAL LYMPHOCYTES, Metabolic Activation: NONE); “inactive; negative” (End Point: IN VITRO MICRONUCLEUS, Test System: HUMAN PRIMARY HEPATOCYTES (FEMALE), Metabolic Activation: NONE); “active; positive” (End Point: IN VITRO MICRONUCLEUS, Test System: RAT PRIMARY HEPATOCYTES (MALE/FEMALE), Metabolic Activation: NONE).
As to `Nc1ccnc2ccccc12`, the mutagenic call is “inactive; negative” under setting [2]; “inactive; negative” (Test System: AMES SALMONELLA TYPHIMURIUM, Strain/Indicator: TA98, Metabolic Activation: RAT, LIVER, S-9, KANECHLOR 500 OR PHENOBARBITAL AND BETA-NAPHTHOFLAVONE, Method: PREINCUBATION); “inactive; negative” under setting [3]; “inactive; negative” (Test System: AMES SALMONELLA TYPHIMURIUM, Strain/Indicator: TA100, Metabolic Activation: RAT, LIVER, S-9, KANECHLOR 500 OR PHENOBARBITAL AND BETA-NAPHTHOFLAVONE, Method: PREINCUBATION).
In the case of `Cc1cnc2c(n1)c(C)cc1c2nc(N)n1C`, the mutagenic call under setting [5] is “active; positive”.

The values are drawn from PubChem BioAssay AID1259407 (Chemical Carcinogenesis Research Information System (CCRIS), 2018).
